From US20180282819A1, “Targeting the Histone Pathway to Detect and Overcome Anthracyclin Resistance” (ONTARIO INSTITUTE FOR CANCER RESEARCH (OICR), priority 2015, published 2018)

Key:
Type in all cases: cell-based, human
[1] = system: MCF7 EpiR (epirubicin-resistant MCF7 cells); test: HDAC inhibitor cytotoxicity, CellTiter-Glo viability; conditions: for IC50: 72 h, CellTiter-Glo, in the presence of selection dose of epirubicin (30 nM)
Procedure: (§1) All inhibitors were provided by the Drug Discovery group at the Ontario Institute for Cancer Research (OICR, Toronto, Canada). Cells were seeded at 1000-1500 cells/well into 384-well plates (Greiner, Mississauga, Canada). […] After 72 h, the effects of inhibitors were determined using CellTiter-Glo Luminescent Cell Viability Assay (Promega, Madison, USA) and the Wallac EnVision 2104 Multilabel Reader (Perkin-Elmer, Woodbridge, Canada). Raw data were normalized to negative (media) and positive (20 μM staurosporine) controls and analyzed in GraphPad Prism5.

[2] = system: SKBR3 EpiR (epirubicin-resistant SKBR3 cells); test: as above; conditions: for IC50: 72 h, CellTiter-Glo, in the presence of selection dose of epirubicin (15 nM)
Procedure: as §1

[3] = system: SKBR3 Nat (native SKBR3 cells); test: as above
Procedure: as §1

[4] = system: MCF7 Nat (native MCF7 cells); test: as above
Procedure: as §1

[5] = system: ZR75 Nat (native ZR-75-1 cells); test: as above
Procedure: as §1

[6] = system: ZR75 EpiR (epirubicin-resistant ZR-75-1 cells); test: as above; conditions: 72 h, in the presence of selection dose of epirubicin (10 nM)
Procedure: as §1

[7] = system: 231 Nat (native MDA-MB-231 cells); test: as above
Procedure: as §1

[8] = system: 231 EpiR (epirubicin-resistant MDA-MB-231 cells); test: as above; conditions: for IC50: 72 h, CellTiter-Glo, in the presence of selection dose of epirubicin (25 nM)
Procedure: as §1

[9] = system: SKBR3 epirubicin-resistant cells; test: Cross resistance, CCK-8 viability; conditions: SKBR3, 72 h
Procedure: (§2) Native and resistant cells were exposed to drug concentrations ranging from 0.3 nM to 3000 nM. Cell viability was determined 72 h later by CCK-8 assay. A) Percent of live cells relative to DMSO control was plotted against epirubicin concentration. Black=native cells, magenta=resistant cells. B) IC50 values in nM concentration±standard deviation. Resistance factor is shown in parenthesis and represents resistant IC50/native IC50.
(§3) Breast cancer cell lines (MDA-MB-231, MCF7, ZR-75-1, SKBR3) were purchased from ATCC and cultured in DMEM (except SKBR3, cultured in RPMI) supplemented with 10% heat-inactivated fetal bovine serum and 1% L-glutamine (Gibco, Burlington, Canada). Epirubicin-resistant cell lines were generated by exposing native cells to increasing concentrations of epirubicin with an initial concentration set at 0.5 nM. Resistance was defined when IC50 value superseded the IC50 value of the corresponding native cell line, and resistant cells could not tolerate further increase in drug concentration. Drug resistance and cross resistance were determined by exposing cells to drug concentrations ranging from 0.3-3000 nM for 72 h. Cell viability was determined by Cell Counting Kit-8 (CCK-8, Dojindo, Cedarlane, Burlington, Canada). IC50 were calculated in GraphPad Prism5.

[10] = system: ZR-75-1 epirubicin-resistant cells; test: Cross resistance, CCK-8 viability; conditions: ZR-75-1, 72 h
Procedure: as §2, §3

[11] = system: MCF7 epirubicin-resistant cells; test: Cross resistance, CCK-8 viability; conditions: MCF7, 72 h
Procedure: as §2, §3

[12] = system: MDA-MB-231 epirubicin-resistant cells; test: Cross resistance, CCK-8 viability; conditions: MDA-MB-231, 72 h
Procedure: as §2, §3

[13] = system: all four epirubicin-resistant cell lines (MDA-MB-231, MCF7, SKBR3, ZR-75-1); test: Drug resistance and cross resistance, CCK-8 viability; conditions: 72 h
Procedure: as §2, §3

Compound | IC50 [1] [nM] | IC50 [2] [nM] | IC50 [6] [nM] | IC50 [8] [nM] | IC50 ([3]; Homo sapiens, SK-BR-3, 72 h) [nM] | IC50 ([4]; Homo sapiens, MCF7, 72 h) [nM] | IC50 ([5]; Homo sapiens, ZR75, 72 h) [nM] | IC50 ([7]; Homo sapiens, MDA-MB-231, 72 h) [nM] | also measured
CCC(=O)CCCCC[C@@H]1NC(=O)[C@H]2CCCCN2C(=O)[C@H]([C@@H](C)CC)NC(=O)[C@H](Cc2cn(OC)c3ccccc23)NC1=O | 110 | 2210 | 250 | 110 | – | – | – | – | IC50 ([3]; 72 h): 170 nM; IC50 ([4]; 72 h): 70 nM; IC50 ([5]; 72 h): 210 nM; IC50 ([7]; 72 h): 230 nM
CN(C)Cc1c(C(=O)NCCOc2ccc(C(=O)NO)cc2)oc2ccccc12 [Abexinostat] | 90 | 2250 | 160 | 120 | 210 | 110 | 140 | 270 | –
O=C(/C=C/c1cccc(S(=O)(=O)Nc2ccccc2)c1)NO [Belinostat] | 200 | 150 | 460 | 180 | 210 | 250 | 360 | 500 | –
CC(C)(C)OC(=O)Nc1ccc(-c2cc(C(=O)NCCCCCCC(=O)NO)no2)cc1 [CAY10603] | 380 | 1030 | 750 | 820 | – | – | – | – | cytotoxicity for epirubicin-resistant cells compared to native cell lines ([1]; MCF7, with epirubicin): more cytotoxic; IC50 ([3]; 72 h): 440 nM; IC50 ([4]; 72 h): 610 nM; IC50 ([5]; 72 h): 980 nM; IC50 ([7]; 72 h): 1270 nM
O=C(/C=C/c1cccc(C(=O)NO)c1)NO [CBHA] | 3580 | 1030 | 2250 | 1750 | – | – | – | – | IC50 ([3]; 72 h): 1450 nM; IC50 ([4]; 72 h): 1180 nM; IC50 ([5]; 72 h): 2940 nM; IC50 ([7]; 72 h): 2390 nM
O=C(/C=C/c1ccc(CN(CCO)CCc2c[nH]c3ccccc23)cc1)NO [Dacinostat] | 10 | 60 | 20 | 20 | 20 | 20 | 20 | 40 | –
CCN(CC)Cc1ccc2cc(COC(=O)Nc3ccc(C(=O)NO)cc3)ccc2c1 [Givinostat] | 80 | 2740 | 180 | 160 | 220 | 100 | 170 | 260 | –
Nc1ccccc1NC(=O)c1ccc(CNc2nccc(-c3cccnc3)n2)cc1 [Mocetinostat] | 410 | 3690 | 430 | 430 | 1000 | 320 | 350 | 850 | –
Cc1[nH]c2ccccc2c1CCNCc1ccc(/C=C/C(=O)NO)cc1 [Panobinostat] | 10 | 70 | 20 | 10 | 20 | 10 | 10 | 20 | –
CCCCc1nc2cc(/C=C/C(=O)NO)ccc2n1CCN(CC)CC [Pracinostat] | 120 | 920 | 230 | 180 | 260 | 160 | 150 | 540 | cytotoxicity for epirubicin-resistant cells compared to native cell lines ([8]; MDA-MB-231, with epirubicin): more cytotoxic
Cn1cc(CNCC2CCN(c3ncc(C(=O)NO)cn3)CC2)c2ccccc21 [Quisinostat] | 10 | 220 | 10 | 10 | 10 | 10 | 10 | 10 | –
CCc1c2c(nc3ccc(O)cc13)-c1cc3c(c(=O)n1C2)COC(=O)[C@]3(O)CC [SN-38] | – | – | – | – | – | – | – | – | cross-resistance of epirubicin-resistant cells [9]: cross-resistant; cross-resistance of epirubicin-resistant cells [10]: tolerated only small increases in SN-38 concentrations; cross-resistance of epirubicin-resistant cells [11]: tolerated only small increases in SN-38 concentrations; cross-resistance of epirubicin-resistant cells [12]: cross-resistant
O=C(CCCCCN1C(=O)c2cccc3cccc(c23)C1=O)NO [Scriptaid] | 720 | 940 | 1230 | 1300 | 1250 | 1340 | 1660 | 3810 | –
CC(/C=C/C(=O)NO)=C\[C@@H](C)C(=O)c1ccc(N(C)C)cc1 [Trichostatin A] | 500 | 1240 | 2280 | 150 | – | – | – | – | IC50 ([3]; 72 h): 1520 nM; IC50 ([5]; 72 h): 1830 nM; IC50 ([7]; 72 h): 330 nM
N.N.O=C([O-])C1(C(=O)[O-])CCC1.[Pt+2] [carboplatin] | – | – | – | – | – | – | – | – | cross-resistance of epirubicin-resistant cell lines [13]: None of the cell lines were cross-resistant
CC(=O)O[C@@]12CO[C@@H]1C[C@H](O)[C@@]1(C)C(=O)[C@H](O)C3=C(C)[C@@H](OC(=O)[C@H](O)[C@@H](NC(=O)OC(C)(C)C)c4ccccc4)C[C@@](O)([C@@H](OC(=O)c4ccccc4)[C@H]21)C3(C)C [docetaxel] | – | – | – | – | – | – | – | – | cross-resistance of epirubicin-resistant cells [9]: cross-resistant; cross-resistance of epirubicin-resistant cells [10]: not taxane-resistant; cross-resistance of epirubicin-resistant cells [11]: not taxane-resistant; cross-resistance of epirubicin-resistant cells [12]: not taxane-resistant
COc1cccc2c1C(=O)c1c(O)c3c(c(O)c1C2=O)C[C@@](O)(C(=O)CO)C[C@@H]3O[C@H]1C[C@H](N)[C@H](O)[C@H](C)O1 [doxorubicin] | – | – | – | – | – | – | – | – | cross-resistance of epirubicin-resistant cell lines [13]: resistant
CC(=O)O[C@H]1C(=O)[C@@]2(C)[C@H]([C@H](OC(=O)c3ccccc3)[C@]3(O)C[C@H](OC(=O)[C@H](O)[C@@H](NC(=O)c4ccccc4)c4ccccc4)C(C)=C1C3(C)C)[C@]1(OC(C)=O)CO[C@@H]1C[C@@H]2O [paclitaxel] | – | – | – | – | – | – | – | – | cross-resistance of epirubicin-resistant cells [9]: cross-resistant; cross-resistance of epirubicin-resistant cells [10]: not taxane-resistant; cross-resistance of epirubicin-resistant cells [11]: not taxane-resistant; cross-resistance of epirubicin-resistant cells [12]: not taxane-resistant
Oxamflatin | 250 | 690 | 1200 | 290 | – | – | – | – | cytotoxicity for epirubicin-resistant cells compared to native cell lines ([2]; SKBR3, with epirubicin): more cytotoxic; IC50 ([3]; 72 h): 1280 nM; IC50 ([4]; 72 h): 620 nM; IC50 ([5]; 72 h): 680 nM; IC50 ([7]; 72 h): 590 nM
